Source: patent publication US7279500B2, “Sulfonamide cannabinoid agonists and antagonists” (Virginia Commonwealth University, priority 2002, dated 2007)
Where two headings read alike, the source gives them in different places.

Key:
CB1 receptor [1] = biological target: CB1 receptor (UniProt P21554); experiment: CB1 receptor affinity assay; type: binding; conditions: for Kd: read-out: CB1KD
Method: (§1) Mouse Tetrad and CB1 and CB2 receptor Affinity. The mouse tetrad and CB1 and CB2 receptor affinity assays were carried out as previously described in Wiley, J. L., Beletskaya, I. D., Ng, E. W., Dai, Z., Crocker, P. J., Mahadevan, A, Razdan, R. K., Martin, B. R., Resorcinols derivatives: a novel template for the delevopment of cannabinoid CB1/CB2 and CB2-selective agonists. J. Pharmacol. Exp. Ther. 301: 679-689, 2002.
(§2) The incorporation of sulfonaminde moieties is known to impart antagonistic activity in some classes of compounds. There is precedent for sulfonamide derivatives to show potent antagonist activity in peptidoleukotrienes (see for example, Matassa et al., J. Med. Chem. 1990, 33, 2621-2629; Jacobs et al., J. Med. Chem. 1993, 36, 394-409). In the development of the present invention, a sulfonamide moiety, SO2R, in which the identity of R was varied, was incorporated into the terminal position of a tetrahydrocannabinol (THC) side chain, which was also varied (saturated or unsaturated) as described above. The resulting compounds were tested for CB1 and CB2 receptor binding affinity, and cannabinoid agonist and antagonist properties using the mouse tetrad test, as described in Materials and Methods.

mice = experiment: Mouse tetrad test (sedation, analgesia, hypothermia) following i.v. administration; type: in vivo; conditions: for ED50: iv
Method: as §1, §2
The compounds were tested for their CB1 and CB2 receptor binding ability, and their cannabinoid agonist and antagonist properties.

CB2 receptor = CB2 receptor (Homo sapiens, UniProt P34972); experiment: CB2 receptor affinity assay; type: binding
Chain of CB2 receptor (P34972 whole entry): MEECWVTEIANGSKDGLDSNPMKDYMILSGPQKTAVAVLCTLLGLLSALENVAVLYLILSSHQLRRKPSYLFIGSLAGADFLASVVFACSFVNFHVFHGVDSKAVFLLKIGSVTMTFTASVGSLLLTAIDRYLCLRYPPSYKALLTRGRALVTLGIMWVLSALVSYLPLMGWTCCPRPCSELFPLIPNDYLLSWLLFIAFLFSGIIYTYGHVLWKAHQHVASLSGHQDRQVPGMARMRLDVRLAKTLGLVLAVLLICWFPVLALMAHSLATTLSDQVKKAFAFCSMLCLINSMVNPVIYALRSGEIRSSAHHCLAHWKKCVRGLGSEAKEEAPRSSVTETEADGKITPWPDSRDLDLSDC
Method: as §1, §2

CB1 receptor [2] = biological target: T1, CB1 receptor (Rattus norvegicus, UniProt P20272); experiment: GTPγS binding in rat brain membranes, compound alone (inverse agonism); type: biochemical; parameters: from tissue; host or cells: rat brain membranes; conditions: for GTPγS stimulation (1 μM): rat brain membranes
T1 sequence (P20272 whole entry): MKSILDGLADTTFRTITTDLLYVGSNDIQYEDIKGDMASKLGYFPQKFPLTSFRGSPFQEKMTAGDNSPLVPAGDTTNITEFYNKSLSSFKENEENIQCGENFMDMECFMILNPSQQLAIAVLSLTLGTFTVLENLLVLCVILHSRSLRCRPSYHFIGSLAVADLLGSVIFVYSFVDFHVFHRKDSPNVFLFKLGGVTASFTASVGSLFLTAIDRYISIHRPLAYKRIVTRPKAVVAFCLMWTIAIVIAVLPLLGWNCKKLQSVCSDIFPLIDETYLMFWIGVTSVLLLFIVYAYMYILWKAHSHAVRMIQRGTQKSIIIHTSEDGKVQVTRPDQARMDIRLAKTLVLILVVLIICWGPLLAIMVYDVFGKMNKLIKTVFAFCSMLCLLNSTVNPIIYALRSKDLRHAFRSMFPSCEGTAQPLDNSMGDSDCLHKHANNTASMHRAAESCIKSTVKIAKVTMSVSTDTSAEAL
Text: FIG. 2. Compound O-2050 lacks inverse agonism in GTPγS binding in rat brain membranes. X axis, concentration of O-2050 (M); Y axis, % stimulation of GTPγS binding.
In order to determine whether O-2050 had inverse agonist properties, the compound was examined alone in the GTPγS binding assay. […] The performance of O-2050 in this assay in comparison to two other compounds with unsaturated side chains and varying R groups (O-1991, R=ethyl, and O-1993, R=butyl) are given in Table 3.

mouse vas deferens [3] = conditions: literature, Pertwee et al. 1996; cited from earlier work
CB1 receptor [4] = biological target: T2, CB1 receptor (Mus musculus, UniProt P47746); experiment: Antagonism of WIN 55,212-2 inhibition of electrically induced contractions of mouse vas deferens; type: cell-based
T2 construct: O-2050 behaves as a CB1 receptor antagonist at naturally expressed CB1 receptors; from tissue; host or cells: mouse vas deferens
T2 sequence (P47746 whole entry): as the sequence (P20272 whole entry) above, with E95D counted along it
Method: FIG. 3. Compound O-2050 antagonism of WIN 55,212-2 in mouse vas deferens. X axis, concentration of WIN 55,212-2; Y axis, % inhibition of WIN 55,212-2 activity (mean % inhibition±standard error [s.e.] of the mean). Open circles=vehicle control (WIN 55212-2 added after pretreatment with dimethylsulfoxide (DMSO), the solvent in which the O-2050 was dissolved; open triangles: 1 nM O-2050 (WIN 55,212-2 added after pretreatment with 1 nM O-2050); filled circles: 10 nM O-2050 (WIN 55,212-2 added after pretreatment with 10 nM O-2050); filled triangles: 31.62 nM O-2050 (WIN 55,212-2 added after pretreatment with 31.62 nM O-2050); filled squares: 100 nM O-2050 (WIN 55,212-2 added after pretreatment with 100 nM O-2050.
These observations were extended by examining O-2050 in the mouse vas deferens, a smooth muscle preparation that is regulated by the cannabinoid system.

mouse vas deferens [5] = experiment: Mouse vas deferens, compound alone (inverse agonism); type: cell-based; conditions: up to 1000 nM
Text: FIG. 4. Compound O-2050 lacks inverse agonism in GTPγS binding in mouse vas deferens. Y axis, % enhancement±s.e. (standard error of the mean) of GTPγS binding in mouse vas deferens by O-2050 at the indicated concentrations.
In order to determine whether O-2050 has inverse agonist properties in the mouse vas deferens, the compound was examined alone in this tissue preparation. […] O-2050 therefore differs from the putative inverse agonist, SR141716A, which does enhance the amplitude of these contractions in this bioassay system (e.g. see Pertwee et al., 1996, Eur. J. Pharmacol. 315: 195-201). […] Therefore, O-2050 lacks inverse agonist properties in yet another system that is regulated by the cannabinoids.

CB1 receptor [6] = biological target: T1, CB1 receptor; experiment: Block of CP 55,940-stimulated GTPγS binding in rat brain tissue; type: biochemical; parameters: from tissue; host or cells: rat brain tissue
Method: FIG. 1. Compound O-2050 blocks CP 55,940 stimulation of GTPγS binding. O-2050 was tested for its ability to block stimulation of GTPγS binding by CP 55,940. […], log concentration of O-2050; Y axis, % stimulation by CP 55,940.
The above properties of O-2050 are indicative of an antagonist. Therefore, the ability of O-2050 to block the agonist effects of CP 55,940, a highly efficacious cannabinoid, in the in vitro GTPγS binding assay in rat brain tissue was tested. The assay is an in vitro functional measure of CB1 receptor activation.

[7] = mouse tetrad, i.v. administration, read-out: Analgesia ED50
[8] = mouse tetrad, i.v. administration, read-out: Sedation ED50
[9] = mouse tetrad, i.v. administration, read-out: Temperature (hypothermia) ED50
[10] = mouse tetrad, i.v. administration

For CCCCS(=O)(=O)NCCCC#CCc1cc(O)c2c(c1)OC(C)(C)C1CC=C(C)CC21 (stereo not shown) [Compound O-1993], the “CB1 receptor affinity (in words)” value (CB1 receptor [1]) was “moderate affinity”, the Kd (CB1 receptor [1]) was 70 ± 10 nM and the “Agonist potency in mouse tetrad test (in words)” value (“Agonist potency” for short) (mice; i.v. administration) was “moderate to low pharmacological agonist potency”. It also gave an ED50 (mice; [7]) of 14 mg/kg, an ED50 (mice; [8]) of 7.6 mg/kg and an ED50 (mice; [9]) of 12 mg/kg. For the same molecule, the “CB2 receptor affinity (in words)” value (CB2 receptor) was “only moderate affinity”, the Kd (CB2 receptor) was 86 ± 7 nM and the “Negative stimulation of GTPγS binding / agonist character (in words)” value (CB1 receptor [2]) was “weak agonists”. For the same molecule, the “GTPγS stimulation (1 μM)” value (CB1 receptor [2]) was 30%.
In the case of Cc1c(C(=O)NN2CCCCC2)nn(-c2ccc(Cl)cc2Cl)c1-c1ccc(Cl)cc1 [SR141716A], the “Enhancement of amplitude of electrically-evoked contractions” value (mouse vas deferens [3]) is listed as “does enhance”.
With CC1=CCC2C(C1)c1c(O)cc(CC#CCCCNS(C)(=O)=O)cc1OC2(C)C (stereo not shown) [Compound O-2050, 3-Norpentyl-3-(6-methanesulfamidohex-2-yne-yl)-Δ^8-tetrahydrocannabinol] the “CB1 receptor affinity (in words)” value (CB1 receptor [1]) was “high affinity”, the Kd (CB1 receptor [1]) was 2.5 ± 0.4 nM and the ED50 (mice; [7]) was over 30 mg/kg. The ED50 (mice; [8]) was 4.3 mg/kg, the ED50 (mice; [9]) was over 30 mg/kg and the “Sedation (in words)” value (mice; mouse tetrad) was “only weakly active”. The “Analgesia ED50” value (mice; [10]) was over 30 mg/kg, the “Temperature (hypothermia) ED50” value (mice; [10]) was over 30 mg/kg and the Kb (CB1 receptor [4]) was 1 nM. The “Dextral Shift of WIN 55,212-2 log concentration-response curve” value (CB1 receptor [4]; 1 nM O-2050) was 2.8, the “Dextral Shift of WIN 55,212-2 log concentration-response curve” value (CB1 receptor [4]; 10 nM O-2050) was 7.5 and the “Dextral Shift of WIN 55,212-2 log concentration-response curve” value (CB1 receptor [4]; 20 nM O-2050) was 15. For the same molecule, the “Dextral Shift of WIN 55,212-2 log concentration-response curve” value (CB1 receptor [4]; 100 nM O-2050) was 104, the “Enhancement of amplitude of electrically-evoked contractions” value (mouse vas deferens [5]) was “did not enhance” and the “CB2 receptor affinity (in words)” value (CB2 receptor) was “high affinity”. The Kd (CB2 receptor) was 0.2 ± 0.06 nM, the “Negative stimulation of GTPγS binding / agonist character (in words)” value (CB1 receptor [2]) was “failed to produce negative stimulation” and the “GTPγS stimulation (1 μM)” value (CB1 receptor [2]) was 11%. It also gave a Kb (CB1 receptor [6]) of 1 nM.
With CCCCCc1cc(O)c2c(c1)OC(C)(C)[C@@H]1CCC(C)=C[C@@H]21 [THC, reference compound] the “GTPγS stimulation (1 μM)” value (CB1 receptor [2]) was 15%.
For CCS(=O)(=O)NCCCCC(C)(C)c1cc(O)c2c(c1)OC(C)(C)C1CC=C(C)CC21 (stereo not shown) [Compound O-2113, 1,1-Dimethyl-5-ethanesulfamido-Δ^8-tetrahydrocannabinol], the “CB1 receptor affinity (in words)” value (CB1 receptor [1]) was “high affinity”, the Kd (CB1 receptor [1]) was 1.7 ± 0.3 nM and the “Agonist potency” value (mice; i.v. administration) was “potent cannabinoid agonists”. The ED50 (mice; [7]) was 0.3 mg/kg, the ED50 (mice; [8]) was 0.4 mg/kg and the ED50 (mice; [9]) was 1.4 mg/kg. The “CB2 receptor affinity (in words)” value (CB2 receptor) was “high affinity”.
For CCS(=O)(=O)NCCCC#CCc1cc(O)c2c(c1)OC(C)(C)C1CC=C(C)CC21 (stereo not shown) [Compound O-1991, 3-Norpentyl 3-(6-ethanesulfamidohex-2-yne-yl)-Δ^8-tetrahydrocannabinol], the “CB1 receptor affinity (in words)” value (CB1 receptor [1]) was “moderate affinity”, the Kd (CB1 receptor [1]) was 20 ± 13 nM and the “Agonist potency” value (mice; i.v. administration) was “moderate to low pharmacological agonist potency”. For the same molecule, the ED50 (mice; [7]) was 0.9 mg/kg, the ED50 (mice; [8]) was 1.7 mg/kg and the ED50 (mice; [9]) was 0.8 mg/kg. For the same molecule, the “CB2 receptor affinity (in words)” value (CB2 receptor) was “high affinity”, the Kd (CB2 receptor) was 1.4 ± 0.2 nM and the “Negative stimulation of GTPγS binding / agonist character (in words)” value (CB1 receptor [2]) was “weak agonists”. For the same molecule, the “GTPγS stimulation (1 μM)” value (CB1 receptor [2]) was 29%.
For CC1=CCC2C(C1)c1c(O)cc(C(C)(C)CCCCNS(=O)(=O)c3ccccc3)cc1OC2(C)C (stereo not shown) [Compound O-2048, 1,1-Dimethyl-5-phenylsulfamido-Δ^8-tetrahydrocannabinol], the “CB1 receptor affinity (in words)” value (CB1 receptor [1]) was “high affinity”, the Kd (CB1 receptor [1]) was 4.1 ± 0.4 nM and the “Agonist potency” value (mice; i.v. administration) was “potent cannabinoid agonists”. For the same molecule, the ED50 (mice; [7]) was 2.8 mg/kg, the ED50 (mice; [8]) was 0.3 mg/kg and the ED50 (mice; [9]) was 5.6 mg/kg. The “CB2 receptor affinity (in words)” value (CB2 receptor) was “high affinity”.
